This is an account of results in PubChem BioAssay AID1259407 (Chemical Carcinogenesis Research Information System (CCRIS), 2018).

For this series, the system named is CCRIS mutagenicity, Ames/micronucleus/aberration tests. Briefly: CCRIS mutagenicity studies.

Activity calls are given as the source filed them. No rule for the calls is given here.

Take `O=C(O)C(Cl)Cl`: the mutagenic call by setting is: (End Point: IN VITRO CHROMOSOMAL ABERRATIONS, Test System: CHL CELLS, Metabolic Activation: RAT, LIVER, S-9, SODIUM PHENOBARBITAL AND 5,6-BENZOFLAVONE) “active; positive (structural changes)”; (End Point: In vivo micronucleus, Test System: Normochromatic erythrocytes, Species: Mouse, Strain/Sex: B6C3F1/Male, Route: Oral) “inactive; negative”; (End Point: In vivo micronucleus, Test System: Peripheral blood normochromatic erythrocytes, Species: Mouse, Strain/Sex: B6C3F1/Female, Route: Oral) “inactive; negative; increase in frequency of micronucleated erythrocytes was judged to be”; (End Point: In vivo micronucleus, Test System: Peripheral blood normochromatic erythrocytes, Species: Mouse, Strain/Sex: B6.129-TRP53TM1 BRD/Female, Route: Oral) “inactive; negative”; (End Point: In vivo micronucleus, Test System: Peripheral blood normochromatic erythrocytes, Species: Mouse, Strain/Sex: B6.129-TRP53TM1 BRD/Male, Route: Oral) “inactive; negative”; (End Point: In vivo micronucleus, Test System: Peripheral blood normochromatic erythrocytes, Species: Mouse, Strain/Sex: FVB/N-TgN (v-Ha-ras)Led (Tg.AC) hemizygous/Female, Route: Dermal) “inactive; negative”. Also, the mutagenic call was “inactive; negative” (End Point: In vivo micronucleus, Test System: Peripheral blood normochromatic erythrocytes, Species: Mouse, Strain/Sex: FVB/N-TgN (v-Ha-ras)Led (Tg.AC) hemizygous/Male, Route: Dermal); “inactive; negative” (End Point: In vivo micronucleus, Test System: Peripheral blood normochromatic erythrocytes, Species: Mouse, Strain/Sex: Tg.AC hemizygous/Female, Route: Oral); “inactive; negative” (End Point: In vivo micronucleus, Test System: Peripheral blood normochromatic erythrocytes, Species: Mouse, Strain/Sex: Tg.AC hemizygous/Male, Route: Oral); “active; positive” (Test System: AMES SALMONELLA TYPHIMURIUM, Strain/Indicator: RSJ100, Metabolic Activation: NONE, Method: PREINCUBATION); “inactive; negative” (Test System: AMES SALMONELLA TYPHIMURIUM, Strain/Indicator: RSJ100, Metabolic Activation: RAT LIVER S-9, Method: PREINCUBATION); “inactive; negative” (Test System: AMES SALMONELLA TYPHIMURIUM, Strain/Indicator: TA98, Metabolic Activation: NONE, Method: STANDARD PLATE). For the same compound, the mutagenic call by setting is: (Test System: AMES SALMONELLA TYPHIMURIUM, Strain/Indicator: TA98, Metabolic Activation: RAT LIVER S-9, Method: PREINCUBATION) “inactive; negative”; (Test System: AMES SALMONELLA TYPHIMURIUM, Strain/Indicator: TA98, Metabolic Activation: RAT, LIVER, S-9, AROCLOR 1254, Method: STANDARD PLATE) “inactive; negative”; (Test System: AMES SALMONELLA TYPHIMURIUM, Strain/Indicator: TA98, Metabolic Activation: RAT, LIVER, S-9, PHENOBARBITAL AND 5,6-BENZOFLAVONE, Method: PREINCUBATION) “inactive; negative”; (Test System: AMES SALMONELLA TYPHIMURIUM, Strain/Indicator: TA100, Metabolic Activation: NONE, Method: BAG VAPORIZATION) “active; positive”; (Test System: AMES SALMONELLA TYPHIMURIUM, Strain/Indicator: TA100, Metabolic Activation: NONE, Method: FLUCTUATION TEST) “active; positive”; (Test System: AMES SALMONELLA TYPHIMURIUM, Strain/Indicator: TA100, Metabolic Activation: NONE, Method: PREINCUBATION) “active; positive”. For the same compound, the mutagenic call runs as follows: (Test System: AMES SALMONELLA TYPHIMURIUM, Strain/Indicator: TA100, Metabolic Activation: NONE, Method: STANDARD PLATE) “inactive; negative”; (Test System: AMES SALMONELLA TYPHIMURIUM, Strain/Indicator: TA100, Metabolic Activation: RAT LIVER S-9, Method: PREINCUBATION) “active; positive”; (Test System: AMES SALMONELLA TYPHIMURIUM, Strain/Indicator: TA100, Metabolic Activation: RAT, LIVER, S-9, AROCLOR 1254, Method: BAG VAPORIZATION) “active; positive”; (Test System: AMES SALMONELLA TYPHIMURIUM, Strain/Indicator: TA100, Metabolic Activation: RAT, LIVER, S-9, AROCLOR 1254, Method: FLUCTUATION TEST) “active; positive”; (Test System: AMES SALMONELLA TYPHIMURIUM, Strain/Indicator: TA100, Metabolic Activation: RAT, LIVER, S-9, AROCLOR 1254, Method: STANDARD PLATE) “inactive; negative”; (Test System: AMES SALMONELLA TYPHIMURIUM, Strain/Indicator: TA100, Metabolic Activation: RAT, LIVER, S-9, PHENOBARBITAL AND 5,6-BENZOFLAVONE, Method: PREINCUBATION) “inactive; negative”. For the same compound, the mutagenic call by setting is: (Test System: AMES SALMONELLA TYPHIMURIUM, Strain/Indicator: TA102, Metabolic Activation: NONE, Method: STANDARD PLATE) “inactive; negative”; (Test System: AMES SALMONELLA TYPHIMURIUM, Strain/Indicator: TA102, Metabolic Activation: RAT LIVER S-9, AROCLOR 1254, Method: STANDARD PLATE) “inactive; negative”; (Test System: AMES SALMONELLA TYPHIMURIUM, Strain/Indicator: TA102, Metabolic Activation: RAT, LIVER, S-9, PHENOBARBITAL AND 5,6-BENZOFLAVONE, Method: STANDARD PLATE) “inactive; negative”; (Test System: AMES SALMONELLA TYPHIMURIUM, Strain/Indicator: TA1535, Metabolic Activation: NONE, Method: STANDARD PLATE) “inactive; negative”; (Test System: AMES SALMONELLA TYPHIMURIUM, Strain/Indicator: TA1535, Metabolic Activation: RAT, LIVER, S-9, AROCLOR 1254, Method: STANDARD PLATE) “inactive; negative”; (Test System: AMES SALMONELLA TYPHIMURIUM, Strain/Indicator: TA1537, Metabolic Activation: NONE, Method: STANDARD PLATE) “inactive; negative”. In addition, the mutagenic call (Test System: AMES SALMONELLA TYPHIMURIUM, Strain/Indicator: TA1537, Metabolic Activation: RAT, LIVER, S-9, AROCLOR 1254, Method: STANDARD PLATE) is “inactive; negative”; the mutagenic call (Test System: AMES SALMONELLA TYPHIMURIUM, Strain/Indicator: TA2638, Metabolic Activation: RAT, LIVER, S-9, PHENOBARBITAL AND 5,6-BENZOFLAVONE, Method: STANDARD PLATE) was “inactive; negative”; the mutagenic call (Test System: Ames Salmonella typhimurium, Strain/Indicator: TA98, Metabolic Activation: Hamster, liver, S-9, Aroclor 1254 (30%), Method: Preincubation) was “inactive; negative”; the mutagenic call (Test System: Ames Salmonella typhimurium, Strain/Indicator: TA98, Metabolic Activation: Hamster, liver, S-9, Aroclor 1254, 30%, Method: Preincubation) is “inactive; negative”; the mutagenic call (Test System: Ames Salmonella typhimurium, Strain/Indicator: TA98, Metabolic Activation: Rat, liver, S-9, Aroclor 1254, 30%, Method: Preincubation) is “inactive; negative”; the mutagenic call (Test System: Ames Salmonella typhimurium, Strain/Indicator: TA100, Metabolic Activation: Hamster, liver, S-9, Aroclor 125, 30%, Method: Preincubation) is “inactive; negative”. Besides, the mutagenic call reads like this: (Test System: Ames Salmonella typhimurium, Strain/Indicator: TA100, Metabolic Activation: Hamster, liver, S-9, Aroclor 1254, 30%, Method: Preincubation) “inactive; negative”; (Test System: Ames Salmonella typhimurium, Strain/Indicator: TA100, Metabolic Activation: None, Method: Preincubation) “active; positive”; (Test System: Ames Salmonella typhimurium, Strain/Indicator: TA100, Metabolic Activation: Rat, liver, S-9, Aroclor 1254, 30%, Method: Preincubation) “inactive; negative”; (Test System: Ames Salmonella typhimurium, Strain/Indicator: TA1535, Metabolic Activation: None, Method: Preincubation) “active; positive, three trials performed; ntp described results as positive, weakly posi”; (Test System: E. COLI, Strain/Indicator: WP2 (PKM101), Metabolic Activation: RAT, LIVER, S-9, PHENOBARBITAL AND 5,6-BENZOFLAVONE, Method: STANDARD PLATE) “inactive; negative”; (Test System: E. COLI, Strain/Indicator: WP2 UVRA (PKM101), Metabolic Activation: RAT, LIVER, S-9, PHENOBARBITAL AND 5,6-BENZOFLAVONE, Method: STANDARD PLATE) “inactive; negative”. Moreover, the mutagenic call reads like this: (Test System: E. COLI, Strain/Indicator: WP2 UVRA, Metabolic Activation: NONE, Method: STANDARD PLATE) “inactive; negative”; (Test System: E. COLI, Strain/Indicator: WP2 UVRA, Metabolic Activation: RAT, LIVER, S-9, AROCLOR 1254, Method: STANDARD PLATE) “inactive; negative”; (Test System: MOUSE LYMPHOMA, Strain/Indicator: L5178Y (TK+/TK- -3.7.2C), Metabolic Activation: NONE) “active; positive”; (Test System: MOUSE LYMPHOMA, Strain/Indicator: L5178Y (TK+/TK-), Metabolic Activation: NONE, Method: SUSPENSION/PLATE) “inactive; negative”; (Test System: MOUSE LYMPHOMA, Strain/Indicator: L5187Y (TK+/TK-), Metabolic Activation: RAT, LIVER, S-9, AROCLOR 1254, Method: SUSPENSION/PLATE) “inactive; negative”.
For `C=C1/C(=C\C=C2/CCC[C@]3(C)[C@@H]([C@H](C)CCCC(C)(C)O)CC[C@@H]23)C[C@@H](O)C[C@@H]1O`, the mutagenic call (End Point: IN VIVO CHROMOSOMAL ABERRATIONS, Test System: BONE MARROW CELLS, Species: RAT, Strain/Sex: WISTAR, Route: ORAL) was “inactive; negative”.
Turning to `NNc1nc(-c2ccc([N+](=O)[O-])cc2)cs1`, the mutagenic call by setting is: (Test System: AMES SALMONELLA TYPHIMURIUM, Strain/Indicator: TA98, Metabolic Activation: RAT, LIVER, S-9, KC500 OR PHENOBARBITAL, Method: LIQUID SUSPENSION) “active; positive”; (Test System: AMES SALMONELLA TYPHIMURIUM, Strain/Indicator: TA100, Metabolic Activation: RAT, LIVER, S-9, KC500 OR PHENOBARBITAL, Method: LIQUID SUSPENSION) “active; positive”.
With `Nc1cccc2c(Cl)nsc12`, the mutagenic call (Test System: AMES SALMONELLA TYPHIMURIUM, Strain/Indicator: TA100, Metabolic Activation: S-9, Method: STANDARD PLATE) is “active; positive”.
